Where two headings read alike, the source gives them in different places.

The test system of test [1] is intracellular histone H3K9 dimethylation level in human lung cancer cell line NCI-H460. Description: Histone H3K9 dimethylation inhibitory activity test (Western blotting). Type of test: cell-based. The note with it: NCI-H460 cells, 72 hours. As to the method:
The inhibitory activity of each compound against G9a was evaluated by adding the compound to a human lung cancer cell line NCI-H460, and detecting change in intracellular histone H3K9 dimethylation level by Western blotting. The NCI-H460 cells were cultured in a DMEM medium (FUJIFILM Wako Pure Chemical Corp., 044-29765) containing 10% fetal bovine serum and 4 mM glutamine. The cultured cells were washed with PBS and then detached with trypsin/EDTA, and the cell suspension was adjusted to 2.5×10^4 cells/mL. The cell suspension was inoculated at 500 μL/well to a 24-well microplate (Thermo Fisher Scientific, Inc., 142475) and cultured overnight under conditions of 37° C. and 5% CO2. On the next day, the test compound (solution in DMSO) was added at 0.5 µL/well and reacted for 72 hours under conditions of 37° C. and 5% CO2. DMSO was added at 0.5 μL/well to control wells (final DMSO concentration: 0.1%). The medium was removed, and the cells were washed with PBS. Then, a 2×SDS-PAGE sample buffer (100 mM Tris-HCl (pH 6.8), 4% sodium lauryl sulfate, 2% 2-mercaptoethanol, 20% glycerol, 0.005% bromophenol blue) was added at 50 μL/well to prepare a sample. The recovered sample was heated at 95 to 100° C. for 10 minutes, and protein was separated by polyacrylamide gel electrophoresis (SDS-PAGE). Subsequently, the separated protein was transferred to a polyvinylidene fluoride (PVDF) membrane by semi-dry blotting. The PVDF membrane was dipped in 3% skimmed milk (dissolved in PBS containing 0.05% Tween 20 (PBST)), blocked at room temperature for 30 to 60 minutes, then dipped in an anti-dimethylated histone H3K9 antibody (Abcam plc, ab1220) diluted 1000-fold with 3% skimmed milk, and reacted overnight at 4° C. On the next day, the PVDF membrane was washed three times with PBST, then dipped in a HRP (horseradish peroxidase)-labeled anti-mouse IgG antibody diluted 10000-fold with skimmed milk, and reacted at room temperature for 1 hour. The PVDF membrane was washed three times with PBST, then dipped in chemiluminescent substrate solution Immobilon Western Chemiluminescent HRP Substrate (Merck Millipore, WBKLS0500), incubated at room temperature for 5 minutes, and photographed with Lumino Image Analyzer (GE Healthcare Japan Corp., ImageQuant LAS4000).
Then, the antibody was stripped from the PVDF membrane using re-probe reagent EzReprobe (ATTO Corp., WSE-7240), and trimethylated histone H3K9 and histone H3 were detected by the same procedures as above. An anti-trimethyl histone H3K9 antibody (39161, diluted 1000-fold) from Active Motif, Inc. and an anti-histone H3 antibody (ab1791, diluted 2000-fold) from Abcam plc were used in the detection. The band of each protein was quantified from the taken image using image processing software ImageJ (NIH). The ratios of dimethylated histone H3K9 and trimethylated histone H3K9 to the histone H3 protein were calculated with the numeric value of a compound-unsupplemented sample defined as 100%. A compound concentration at which the ratio of dimethylated histone H3K9 was 50% was calculated as a 50% inhibition concentration (IC50 value) using data analysis software Origin (LightStone Corp.).
(A western blot detects proteins with antibodies after separation by electrophoresis.)

For test [2], the target named is T1, recombinant human G9a protein (Homo sapiens, UniProt Q96KQ7).
T1 construct: purchased BPS Bioscience Inc. #51001
T1 sequence (Q96KQ7 785-1210 limits assumed): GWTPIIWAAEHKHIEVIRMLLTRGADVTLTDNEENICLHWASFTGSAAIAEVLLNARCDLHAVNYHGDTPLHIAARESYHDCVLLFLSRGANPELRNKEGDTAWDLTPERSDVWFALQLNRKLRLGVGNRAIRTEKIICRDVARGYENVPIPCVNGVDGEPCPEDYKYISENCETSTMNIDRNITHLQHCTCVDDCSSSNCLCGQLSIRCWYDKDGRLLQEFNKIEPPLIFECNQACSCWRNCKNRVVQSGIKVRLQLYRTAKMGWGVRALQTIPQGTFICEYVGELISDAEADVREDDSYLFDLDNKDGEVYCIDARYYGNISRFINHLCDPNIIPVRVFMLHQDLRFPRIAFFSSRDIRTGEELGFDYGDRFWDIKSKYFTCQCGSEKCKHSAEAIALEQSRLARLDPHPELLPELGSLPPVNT
Briefly: G9a inhibitory activity test (ALPHA). Type of test: biochemical. A digest of the protocol: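 Human G9a (0.05 to 0.1 nM) in Tris pH 9.0 buffer preincubated with compound 10 min, then biotinylated histone H3 (1-21) peptide and SAM mixed 1:1 from 500 nM and 150 μM solutions, 1 h at room temperature. H3K9me2 detected by AlphaLISA acceptor/streptavidin donor beads; IC50 from percent inhibition relative to no-compound and no-enzyme controls.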

The subject of test [3] is human lung cancer cell line NCI-H460. Briefly: Colony formation inhibition test. It is filed as cell-based. The note with it: 288 h, NCI-H460 cells, culture for 12 days, read-out: Inhibitory activity (colony formation GI50). As for the experimental part: Each compound was evaluated for its colony formation inhibitory activity against a human lung cancer cell line NCI-H460. The NCI-H460 cells were cultured in a DMEM medium (FUJIFILM Wako Pure Chemical Corp., 044-29765) containing 10% fetal bovine serum and 4 mM glutamine. The cultured cells were washed with PBS, then detached with trypsin/EDTA, and adjusted to 2×10^3 cells/mL to prepare a cell suspension. The cell suspension was inoculated at 1 mL/well to a 12-well microplate (Corning Inc., 3513), and the test compound (DMSO solution) was added at 1 μL/well, followed by culture for 12 days under conditions of 37° C. and 5% CO2. DMSO was added at 1 μL/well to control wells with a final DMSO concentration set to 0.1%. The medium was discarded every day or every two days, and a fresh medium was added at 1 mL/well. The test compound or DMSO was added at 1 μL/well. The proportion of a colony of each well was measured using a high-speed cell imaging system (Tomy Digital Biology Co., Ltd., Celigo). The ratio of the colony in each compound-supplemented group was determined with the ratio of the colony formed in a test compound solution-unsupplemented well defined as 1. A compound concentration necessary for suppressing the rate of colony formation by 50% of the control (GI50) was calculated using data analysis software Origin (LightStone Crop.).

[4] abbreviates: read-out: Inhibitory activity (G9a IC50).
[5] abbreviates: biotinylated histone H3 peptide (1-21), SAM, read-out: Inhibitory activity (G9a IC50 value).

With `Cc1c(C(=O)NC(CCC2CC2)C(=O)Nc2ccccc2)[nH]c2c1C(=O)CC(C)(C)C2` (stereo not drawn) [Example 6-17], the results for the IC50 in test [1] and in test [2] (setting [4]) were < 50 nM and 50 to 200 nM, respectively. The GI50 in test [3] lay within 500 to 1000 nM.
The matching figures for `Cc1ccc(NC(=O)[C@H](CCC2CC2)NC(=O)c2[nH]c3c(c2C)C(=O)CC(C)(C)C3)cn1` [Example 6-10]: 50 to 500 nM, < 50 nM and 500 to 1000 nM.
On to `CCCC[C@H](NC(=O)c1[nH]c2c(c1C)C(=O)CC(C)(C)C2)C(=O)Nc1ccc(OC2CCN(C)CC2)cc1OC` [Example 6-30], for which the 50% inhibitory concentration (IC50) in test [1] and in test [2] (setting [4]) was < 50 nM each time. In addition, the GI50 in test [3] was < 500 nM.
Regarding `COc1ccc(NC(=O)[C@H](CCC2CC2)NC(=O)c2ccc(Nc3ccncc3)cc2)cn1` [Example 6-88], the half-inhibitory concentration (IC50) in test [1] and in test [2] (setting [4]) was < 50 nM each time. Also, the GI50 in test [3] is < 500 nM.
Take `COc1ccc(NC(=O)C(CCC2CC2)NC(=O)c2ccc(N(C)c3ccncc3)cc2)cn1` (stereo not drawn) [Example 6-55]: the values for the IC50 in test [1] and in test [2] (setting [4]) were 50 to 500 nM and < 50 nM, respectively. In test [3], the GI50 is < 500 nM.
Consider `CCCCNC(=O)C(CCC1CC1)NC(=O)c1[nH]c2c(c1C)C(=O)CC(C)(C)C2` (stereo not drawn) [Example 1-82], for which the half-maximal inhibitory concentration (IC50) in test [1] is < 50 nM; in test [2] (setting [5]), 50 to 200 nM. Moreover, the GI50 in test [3] is ≥ 1000 nM.
The matching figures for `Cc1c(C(=O)NC(CCC2CC2)C(=O)NC2CCN(C)CC2)[nH]c2c1C(=O)CC(C)(C)C2` (stereo not drawn) [Example 1-68]: 50 to 500 nM, ≥ 200 nM and ≥ 1000 nM.
For `Cc1c(C(=O)NC(CCC2CC2)C(=O)N2CCc3ccccc32)[nH]c2c1C(=O)CC(C)(C)C2` (stereo not drawn) [Example 1-81] the same measures were 50 to 500 nM, 50 to 200 nM and < 500 nM.
With `CCCCC(NC(=O)Cc1ccccc1)C(=O)Nc1ccc(OC2CCN(C)CC2)nc1` (stereo not drawn) [Example 12-2], the 50% inhibitory concentration (IC50) in test [1] was 50 to 500 nM; in test [2] (setting [4]), ≥ 200 nM. The concentration for 50% growth inhibition (GI50) in test [3] is ≥ 1000 nM.
For `COc1ccc(NC(=O)C(CCC2CC2)NC(=O)c2ccc(Nc3ccncc3)cc2C)cn1` (stereo not drawn) [Example 6-51] the same measures were 50 to 500 nM, < 50 nM and < 500 nM.
For `CCCC[C@H](NC(=O)c1[nH]c2c(c1C)C(=O)CC(C)(C)C2)c1nc2ccc(OC3CCNCC3)cc2[nH]1` [Example 35-1, (S)-3,6,6-trimethyl-4-oxo-N-(1-(6-(piperidin-4-yloxy)-1H-benzo[d]imidazol-2-yl)pentyl)-4,5,6,7-tetrahydro-1H-indole-2-carboxamide] the same measures were ≥ 500 nM, 50 to 200 nM and ≥ 1000 nM.
With `CCCC[C@H](NC(=O)c1[nH]c2c(c1C)C(=O)CC(C)(C)C2)C(=O)NCc1ccc(N2CCN(C)CC2)cc1` [Example 22-2], the figures for the IC50 in test [1] and in test [2] (setting [4]) were < 50 nM and 50 to 200 nM, respectively. The GI50 in test [3] lay in the range of 500 to 1000 nM.
Regarding `Cc1ccc(NC(=O)C(CCC2CC2)NC(=O)c2[nH]c3c(c2C)C(=O)CC(C)(C)C3)cn1` (stereo not drawn) [Example 1-80], the IC50 in test [1] was 50 to 500 nM; in test [2] (setting [5]), ≥ 200 nM. Besides, in test [3], the GI50 was 500 to 1000 nM.
For `Cc1c(C(=O)NC(CCC2CC2)C(=O)Nc2ccc(C#N)cc2)[nH]c2c1C(=O)CC(C)(C)C2` (stereo not drawn) [Example 1-79] the same measures were < 50 nM, 50 to 200 nM and < 500 nM.
As to `COc1ccc(NC(=O)[C@H](CCC2CC2)NC(=O)c2ccc(Nc3cc(C)nc(C)c3)cc2)cn1` [Example 6-89], the half-inhibitory concentration (IC50) was 50 to 500 nM in test [1] and < 50 nM in test [2] (setting [4]). The concentration for 50% growth inhibition (GI50) in test [3] is < 500 nM.
`Cc1c(C(=O)N[C@@H](CCC2CC2)C(=O)Nc2ccccc2)[nH]c2c1C(=O)CC(C)(C)C2` [Example 6-26]: the 50% inhibitory concentration (IC50) in test [1] and in test [2] (setting [4]) was < 50 nM throughout. In addition, the GI50 in test [3] is < 500 nM.
As for `COc1ccc(NC(=O)C(CCC2CC2)NC(=O)c2ccc(Nc3cc(C)nc(C)c3)cc2)cn1` (stereo not drawn) [Example 6-62], the IC50 in test [1] was 50 to 500 nM; in test [2] (setting [4]), < 50 nM. Besides, the concentration for 50% growth inhibition (GI50) in test [3] was < 500 nM.
For `COc1ccc(NC(=O)C(CCC2CC2)NC(=O)c2ccc(CN3CCN(C)CC3)cc2)cn1` (stereo not drawn) [Example 6-52] the same measures were 50 to 500 nM, ≥ 200 nM and 500 to 1000 nM.
`O=C(Cc1ccccc1)NC(CCC1CC1)C(=O)Nc1ccc(OC2COC2)nc1` (stereo not drawn) [Example 1-87]: the concentration for half-maximal inhibition (IC50) in test [1] fell in the range of 50 to 500 nM; in test [2] (setting [5]), 50 to 200 nM. Besides, the GI50 in test [3] is ≥ 1000 nM.
In the case of `CCCC[C@H](NC(=O)c1[nH]c2c(c1C)C(=O)CC(C)(C)C2)C(=O)Nc1ccccc1` [Example 6-33], the values for the IC50 in test [1] and in test [2] (setting [4]) were 50 to 500 nM and ≥ 200 nM, respectively. In test [3], the GI50 is ≥ 1000 nM.
Regarding `CCCC[C@H](NC(=O)c1[nH]c2c(c1C)C(=O)CC(C)(C)C2)C(=O)N[C@@H](C)c1ccccc1` [Example 2-1, 3,6,6-trimethyl-4-oxo-N-((S)-1-oxo-1-(((S)-1-phenylethyl)amino)hexan-2-yl)-4,5,6,7-tetrahydro-1H-indole-2-carboxamide], the IC50 is < 50 nM in test [1] and 50 to 200 nM in test [2] (setting [4]). Also, in test [3], the 50% growth inhibitory concentration (GI50) lay in the range of 500 to 1000 nM.
The matching figures for `CCCC[C@H](NC(=O)c1[nH]c2c(c1C)C(=O)CC(C)(C)C2)C(=O)NCc1ccc(CN(C)C)cc1` [Example 6-34]: < 50 nM, < 50 nM and 500 to 1000 nM.
The matching figures for `CCCC[C@H](NC(=O)c1[nH]c2c(c1C)C(=O)CC(C)(C)C2)C(=O)Nc1ccc(OC2CCN(C)CC2)cc1` [Example 6-32]: < 50 nM, < 50 nM and < 500 nM.
For `COc1ccc(NC(=O)C(CCC2CC2)NC(=O)c2ccc(Nc3ccncc3)cc2)cn1` (stereo not drawn) [Example 6-49] the same measures were 50 to 500 nM, < 50 nM and < 500 nM.

Usually IC50 stands for the concentration at which inhibition is half-maximal. Broadly, the GI50 is the concentration at which growth is held to half of that of the control.

The values are drawn from patent US20230127046A1, “G9a INHIBITOR” (RIKEN, priority 2019, published 2023).
